Laboratory results taken from patent publication US20230218710A1, “METHOD OF TREATING CORONAVIRUS INFECTIONS” (priority 2020, published 2023).
Marks after values point to notes of the source that are not given here.

What was measured:
Apelin Receptor (APJ) = target: T1, Apelin Receptor (APJ) (Homo sapiens, UniProt P35414); assay: Phosphorylation of MEK1 in cultured cells overexpressing APJ; type: cell-based; conditions: 5 min, 100 nM Pyr-Apelin-13 = positive control, acetate salts
T1 construct: host or cells: CHO-K1 AGTRL1 Gi cells
T1 sequence (P35414 1-380): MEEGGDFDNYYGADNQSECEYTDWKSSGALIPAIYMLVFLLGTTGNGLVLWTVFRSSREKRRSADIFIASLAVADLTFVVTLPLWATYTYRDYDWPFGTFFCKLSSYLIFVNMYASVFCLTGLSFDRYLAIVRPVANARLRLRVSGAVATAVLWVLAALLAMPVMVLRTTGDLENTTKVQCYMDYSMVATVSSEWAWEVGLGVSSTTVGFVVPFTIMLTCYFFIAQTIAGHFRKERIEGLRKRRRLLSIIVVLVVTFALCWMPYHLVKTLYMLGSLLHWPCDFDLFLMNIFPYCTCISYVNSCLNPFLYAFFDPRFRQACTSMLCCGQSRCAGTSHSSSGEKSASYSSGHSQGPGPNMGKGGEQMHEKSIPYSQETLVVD
Procedure: Peptides were initially prepared as 100× stocks in H2O. […] Following a 5 min incubation, the supernatant was removed and the cells were placed on ice and washed twice with cold HBSS. The HBSS was removed and the cells were immediately lysed in 300 μl/well of 1× lysis buffer (CST 10× Lysis Buffer; Cell Signaling Technology; Danvers, Mass.); lysis buffer was supplemented with 1 mM PMSF (Millipore-Sigma; Saint Louis, Mo.) and Halt Protease/Phosphatase Inhibitor Cocktail (Thermo-Fisher; Waltham, Mass.) prior to use. The samples were then placed on ice for 10 min, the wells were scraped and lysates were centrifuged at 12,500 rpm for 10 min at 4° C., and p-MEK expression in each sample was measured using Phospho-MEK1 (Ser217/221) Sandwich ELISA kit according to manufacturer's instructions (Cell Signaling Technology; Danvers, Mass.). Absorbance was measured using a Cytation 3 plate reader at […] (BioTek; Winooski, Vt.). […] Each data point represents the average of duplicate assays.

[1] = tested on: LPS-induced acute lung injury mouse model; assay: LPS-induced acute lung injury model in mouse (Example 8); type: in vivo, mice; conditions: HCl salts; for Pro-inflammatory Cytokine Level IFNγ / Pro-inflammatory Cytokine Level IL-1β / Pro-inflammatory Cytokine Level IL-2 / Pro-inflammatory Cytokine Level IL-4 / Pro-inflammatory Cytokine Level IL-5 / Pro-inflammatory Cytokine Level IL-6 / Pro-inflammatory Cytokine Level IL-9 / Pro-inflammatory Cytokine Level IL-10 / Pro-inflammatory Cytokine Level IL-12p70 / Pro-inflammatory Cytokine Level IL-17A / Pro-inflammatory Cytokine Level IL-17A/F / Pro-inflammatory Cytokine Level IL-17C / Pro-inflammatory Cytokine Level IL-17E/IL-25 / Pro-inflammatory Cytokine Level IL-23 / Pro-inflammatory Cytokine Level IL-27p28/IL-30 / Pro-inflammatory Cytokine Level IL-31 / Pro-inflammatory Cytokine Level IP-10 / Pro-inflammatory Cytokine Level KC/GRO / Pro-inflammatory Cytokine Level MCP-1 / Pro-inflammatory Cytokine Level MIP-1α / Pro-inflammatory Cytokine Level MIP-2 / Pro-inflammatory Cytokine Level MIP-3α / Pro-inflammatory Cytokine Level TNFα: BALF; for Mean (SEM) Alveolar Neutrophil Infiltration Score / Mean (SEM) Interstitial Neutrophil Infiltration Score / Mean (SEM) Composite Lung Injury Score: histopathology; for Mean (SEM) Alveolar Neutrophil Infiltration Score / Mean (SEM) Interstitial Neutrophil Infiltration Score: 0-5 scale
Procedure: The effect of the peptides of the current invention on acute lung injury can be assessed in an LPS-induced acute lung injury mouse model by monitoring outcomes such as lung weight, fluid accumulation, cytokine secretion in blood or bronchoalveolar lavage fluid (BALF), neutrophil infiltration into lung tissues, and assessment of acute lung injury score by histopathology. Acute lung injury was induced in male C57BL/6 mice (6 to 8 weeks old) by intratracheal administration of 40 μL lipopolysaccharide (LPS) (Sigma Aldrich, St. Louis, Mo.) in PBS at 5 mg/kg. Control animals received intratracheal PBS alone. Animals (n=8 per treatment group) induced with LPS received intraperitoneal treatment with: PBS (vehicle control) or test peptides at 5 or 15 mg/kg in water. Treatments were administered 1 h prior to LPS for animals designated for termination at 4 h after LPS, or at both 1 h prior to and 6 h after LPS for animals designated for termination at 24 h after LPS. At 4 or 24 hours post-LPS administration, tissues were harvested. Lungs were weighed and flushed with Hanks Buffer to provide bronchoalveolar lavage fluid (BALF). Lungs collected at 24 h were fixed in 10% neutral buffered formalin (NBF) for histopathology. Tissue slides were stained with hematoxylin and eosin (H&E) and evaluated and scored with light microscopy of 5 representative microscopic fields (100× magnification) scoring on a 0-5 scale using standard methods (Matute-Bello G et al 2011. An Official American Thoracic Society Workshop Report: Features and Measurements of Experimental Acute Lung Injury in Animals. Am J Respir Cell Mol Biol 44:725-38). The average score for five fields was calculated for each animal. Levels of pro-inflammatory cytokines in BALF at 4 h were determined using a meso scale discovery (MSD) system. Data for test peptides were compared to the vehicle control group. Table 13 compares the lung weights following LPS induction and treatment with PBS (vehicle control), or peptides. Table 14 compares the levels of pro-inflammatory cytokines in BALF following LPS induction and treatment with PBS (vehicle control) or peptides. Table 15 compares the histopathology scores for infiltration of neutrophils into alveoli and interstitial lung tissue and the composite lung injury score following LPS induction and treatment with PBS (vehicle control) or peptides.

(PEG12)KRRLLGLVFQSLCG(dA) (KRRLLGLVFQSLCGA; N-terminal PEG12; C-terminal D-alanine; (1)..(1) PEG12; (15)..(15) D-Ala) [SEQ ID NO: 37]
pMEK1 (% of Positive Control) (Apelin Receptor (APJ); 2.0 μM peptide): 8.7% | pMEK1 (% of Positive Control) (Apelin Receptor (APJ); 10 μM peptide): 45.5% | pMEK1 (% of Positive Control) (Apelin Receptor (APJ); 50 μM peptide): 79.4% | Mean (SEM) Lung Weight ([1]; 4 h after LPS, 5 mg/kg i.p.): 0.279 (0.006) g | Mean (SEM) Lung Weight ([1]; 4 h after LPS, 15 mg/kg i.p.): 0.280 (0.005) g | Mean (SEM) Lung Weight ([1]; 24 h after LPS, 5 mg/kg i.p.): 0.286 (0.008)* g | Mean (SEM) Lung Weight ([1]; 24 h after LPS, 15 mg/kg i.p.): 0.284 (0.007)* g | Pro-inflammatory Cytokine Level IFNγ ([1]; 4 h after LPS, 5 mg/kg i.p.): 0.37 (0.07) pg/mL | Pro-inflammatory Cytokine Level IL-1β ([1]; 4 h after LPS, 5 mg/kg i.p.): 68.3 (12.6) pg/mL | Pro-inflammatory Cytokine Level IL-2 ([1]; 4 h after LPS, 5 mg/kg i.p.): 2.83 (0.45) pg/mL | Pro-inflammatory Cytokine Level IL-4 ([1]; 4 h after LPS, 5 mg/kg i.p.): 1.63 (0.37) pg/mL | Pro-inflammatory Cytokine Level IL-5 ([1]; 4 h after LPS, 5 mg/kg i.p.): 8.14 (1.35) pg/mL | Pro-inflammatory Cytokine Level IL-6 ([1]; 4 h after LPS, 5 mg/kg i.p.): 9380 (1380) pg/mL | Pro-inflammatory Cytokine Level IL-9 ([1]; 4 h after LPS, 5 mg/kg i.p.): 7.84 (0.67) pg/mL | Pro-inflammatory Cytokine Level IL-10 ([1]; 4 h after LPS, 5 mg/kg i.p.): 32.2 (5.31) pg/mL | Pro-inflammatory Cytokine Level IL-12p70 ([1]; 4 h after LPS, 5 mg/kg i.p.): 65.2 (15.9) pg/mL | Pro-inflammatory Cytokine Level IL-17A ([1]; 4 h after LPS, 5 mg/kg i.p.): 2.22 (0.741) pg/mL | Pro-inflammatory Cytokine Level IL-17A/F ([1]; 4 h after LPS, 5 mg/kg i.p.): 7.45 (2.46) pg/mL | Pro-inflammatory Cytokine Level IL-17C ([1]; 4 h after LPS, 5 mg/kg i.p.): 0.66 (0.04) pg/mL | Pro-inflammatory Cytokine Level IL-17E/IL-25 ([1]; 4 h after LPS, 5 mg/kg i.p.): 0.18 (0.10) pg/mL | Pro-inflammatory Cytokine Level IL-23 ([1]; 4 h after LPS, 5 mg/kg i.p.): 0.08 (0.07) pg/mL | Pro-inflammatory Cytokine Level IL-27p28/IL-30 ([1]; 4 h after LPS, 5 mg/kg i.p.): 13.7 (2.44) pg/mL | Pro-inflammatory Cytokine Level IL-31 ([1]; 4 h after LPS, 5 mg/kg i.p.): 0.00 (0.00) pg/mL | Pro-inflammatory Cytokine Level IP-10 ([1]; 4 h after LPS, 5 mg/kg i.p.): 2290 (341) pg/mL | Pro-inflammatory Cytokine Level KC/GRO ([1]; 4 h after LPS, 5 mg/kg i.p.): 3120 (196) pg/mL | Pro-inflammatory Cytokine Level MCP-1 ([1]; 4 h after LPS, 5 mg/kg i.p.): 1310 (225) pg/mL | Pro-inflammatory Cytokine Level MIP-1α ([1]; 4 h after LPS, 5 mg/kg i.p.): 5660 (50.6) pg/mL | Pro-inflammatory Cytokine Level MIP-2 ([1]; 4 h after LPS, 5 mg/kg i.p.): 3230 (25.1) pg/mL | Pro-inflammatory Cytokine Level MIP-3α ([1]; 4 h after LPS, 5 mg/kg i.p.): 983 (75.1) pg/mL | Pro-inflammatory Cytokine Level TNFα ([1]; 4 h after LPS, 5 mg/kg i.p.): 4070 (518) pg/mL | Pro-inflammatory Cytokine Level IFNγ ([1]; 4 h after LPS, 15 mg/kg i.p.): 0.42 (0.10) pg/mL | Pro-inflammatory Cytokine Level IL-1β ([1]; 4 h after LPS, 15 mg/kg i.p.): 91.5 (20.0) pg/mL | Pro-inflammatory Cytokine Level IL-2 ([1]; 4 h after LPS, 15 mg/kg i.p.): 3.36 (0.55) pg/mL | Pro-inflammatory Cytokine Level IL-4 ([1]; 4 h after LPS, 15 mg/kg i.p.): 1.75 (0.28) pg/mL | Pro-inflammatory Cytokine Level IL-5 ([1]; 4 h after LPS, 15 mg/kg i.p.): 13.2 (2.05) pg/mL | Pro-inflammatory Cytokine Level IL-6 ([1]; 4 h after LPS, 15 mg/kg i.p.): 11600 (1360) pg/mL | Pro-inflammatory Cytokine Level IL-9 ([1]; 4 h after LPS, 15 mg/kg i.p.): 7.89 (1.31) pg/mL | Pro-inflammatory Cytokine Level IL-10 ([1]; 4 h after LPS, 15 mg/kg i.p.): 31.5 (3.76) pg/mL | Pro-inflammatory Cytokine Level IL-12p70 ([1]; 4 h after LPS, 15 mg/kg i.p.): 80.0 (21.8) pg/mL | Pro-inflammatory Cytokine Level IL-17A ([1]; 4 h after LPS, 15 mg/kg i.p.): 2.82 (0.639) pg/mL | Pro-inflammatory Cytokine Level IL-17A/F ([1]; 4 h after LPS, 15 mg/kg i.p.): 4.48 (0.59) pg/mL | Pro-inflammatory Cytokine Level IL-17C ([1]; 4 h after LPS, 15 mg/kg i.p.): 0.69 (0.13) pg/mL | Pro-inflammatory Cytokine Level IL-17E/IL-25 ([1]; 4 h after LPS, 15 mg/kg i.p.): 0.44 (0.29) pg/mL | Pro-inflammatory Cytokine Level IL-23 ([1]; 4 h after LPS, 15 mg/kg i.p.): 0.06 (0.05) pg/mL | Pro-inflammatory Cytokine Level IL-27p28/IL-30 ([1]; 4 h after LPS, 15 mg/kg i.p.): 15.5 (2.42) pg/mL | Pro-inflammatory Cytokine Level IL-31 ([1]; 4 h after LPS, 15 mg/kg i.p.): 0.00 (0.00) pg/mL | Pro-inflammatory Cytokine Level IP-10 ([1]; 4 h after LPS, 15 mg/kg i.p.): 3020 (547) pg/mL | Pro-inflammatory Cytokine Level KC/GRO ([1]; 4 h after LPS, 15 mg/kg i.p.): 3260 (142) pg/mL | Pro-inflammatory Cytokine Level MCP-1 ([1]; 4 h after LPS, 15 mg/kg i.p.): 1590 (178) pg/mL | Pro-inflammatory Cytokine Level MIP-1α ([1]; 4 h after LPS, 15 mg/kg i.p.): 5490 (35.1) pg/mL | Pro-inflammatory Cytokine Level MIP-2 ([1]; 4 h after LPS, 15 mg/kg i.p.): 3160 (34.2) pg/mL | Pro-inflammatory Cytokine Level MIP-3α ([1]; 4 h after LPS, 15 mg/kg i.p.): 825 (46.9) pg/mL | Pro-inflammatory Cytokine Level TNFα ([1]; 4 h after LPS, 15 mg/kg i.p.): 3910 (349) pg/mL | Mean (SEM) Alveolar Neutrophil Infiltration Score ([1]; 24 h after LPS, 5 mg/kg i.p.): 1.50 (0.09) | Mean (SEM) Interstitial Neutrophil Infiltration Score ([1]; 24 h after LPS, 5 mg/kg i.p.): 1.55 (0.14) | Mean (SEM) Alveolar Neutrophil Infiltration Score ([1]; 24 h after LPS, 15 mg/kg i.p.): 1.60 (0.13) | Mean (SEM) Interstitial Neutrophil Infiltration Score ([1]; 24 h after LPS, 15 mg/kg i.p.): 1.23 (0.11) | Mean (SEM) Composite Lung Injury Score ([1]; 24 h after LPS, 5 mg/kg i.p.): 3.08 (0.17) | Mean (SEM) Composite Lung Injury Score ([1]; 24 h after LPS, 15 mg/kg i.p.): 2.93 (0.22)
